Tests used:
Assay type in all cases: in vivo
[1] = system: Echinochloa oryzacola Vasing.; test: Test Example 1: herbicidal activity, application before weed generation in submerged conditions (symbol A); details: application herbicide amount 320 g/ha
Procedure, shortened: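 Mixed weed seeds sown in alluvial soil under 4 cm of water, with rice seedlings at the 2.5-leaf stage added. Same-day treatment: emulsion diluted to a set herbicide amount onto the water. Three weeks at 25–30 °C, then graded on a six-step scale.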

Scirpus juncoides = test: Test Example 2: herbicidal activity, application during weed generation in submerged conditions (symbol B); details: Table 23; application herbicide amount 320 g/ha; grade 0-5 by criteria of Test Example 1
Procedure, shortened: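 Visual herbicidal ratings, taken three weeks after dosing, reflect post-emergence water-surface application to seedlings at one to two leaves. Conditions: co-sown weeds in alluvial soil flooded to 4 cm, greenhouse held at 25° C. to 30° C.; compound given as water-diluted emulsion at a fixed herbicide amount.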

Cyperus difformis = test: Test Example 3: herbicidal effect by foliage application, Wagner pot (symbol E); details: application herbicide amount 320 g/ha; for E herbicidal effect grade: Table 24
Procedure, shortened: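 Herbicidal activity was rated three weeks after a foliar spray of diluted emulsion concentrate, applied at a predetermined dose to plants grown for 14 days from seed in waterlogged alluvial soil within a 25–30 °C greenhouse.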

[2] = system: Echinochloa crus-galli var. crus-galli; test: Test Example 4: herbicidal effect by soil treatment (symbol H)
Procedure, shortened: (§1)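 Seeds were sown in sterilized diluvial soil, covered with about 1.5 cm of soil, and the soil surface was sprayed with a water-diluted emulsion of the compound at a predetermined rate. Plants grew in a greenhouse at 25° C. to 30° C.; effects were scored visually 3 weeks after application.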

Amaranthus retroflexus [3] = test: Test Example 4: herbicidal effect by soil treatment (symbol N)
Procedure, shortened: as §1

Galium spurium [4] = test: Test Example 4: herbicidal effect by soil treatment (symbol Q)
Procedure, shortened: as §1

corn = test: Test Example 4: effect on crop by soil treatment (symbol c); details: for c: corn, effect grade on crop: 320 g/ha
Procedure, shortened: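 Plants are raised in a greenhouse (25° C. to 30° C.) from spot-sown seed, which sits under about 1.5 cm of sterilized diluvial soil in a box shared with weed species.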

rapeseed = test: Test Example 4: effect on crop by soil treatment (symbol g); details: for g: rapeseed, effect grade on crop: 320 g/ha
Procedure, shortened: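 Plants grew in a 25° C. to 30° C. greenhouse after spot-sowing of seeds, including beet, rapeseed, wheat and rice, into sterilized diluvial soil under roughly 1.5 cm of cover soil.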

Avena fatua = test: Test Example 5: herbicidal effect by foliage application, plastic box (symbol I); details: 320 g/ha, 3 weeks after application
Procedure, shortened: (§2)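 Herbicide, formulated as an emulsion and diluted in water, is sprayed onto the aerial parts of 14-day seedlings. These were grown at 25° C. to 30° C. in sterilized diluvial soil; effects are graded after 3 weeks.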

Lolium multiflorum Lam. = test: Test Example 5: herbicidal effect by foliage application, plastic box (symbol K); details: 320 g/ha, 3 weeks after application
Procedure, shortened: as §2

Apera spica-venti = test: Test Example 5: herbicidal effect by foliage application, plastic box (symbol L); details: 320 g/ha, 3 weeks after application
Procedure, shortened: as §2

Abutilon theophrasti = test: Test Example 5: herbicidal effect by foliage application, plastic box (symbol M); details: 320 g/ha, 3 weeks after application
Procedure, shortened: as §2

Amaranthus retroflexus [5] = test: Test Example 5: herbicidal effect by foliage application, plastic box (symbol N); details: 320 g/ha, 3 weeks after application
Procedure, shortened: as §2

Stellaria media = test: Test Example 5: herbicidal effect by foliage application, plastic box (symbol P); details: 320 g/ha, 3 weeks after application
Procedure, shortened: as §2

Galium spurium [6] = test: Test Example 5: herbicidal effect by foliage application, plastic box (symbol Q); details: 320 g/ha, 3 weeks after application
Procedure, shortened: as §2

Veronica persica = test: Test Example 5: herbicidal effect by foliage application, plastic box (symbol R); details: 320 g/ha, 3 weeks after application
Procedure, shortened: as §2

[7] = application herbicide amount 320 g/ha

| Compound | Herbicidal effect grade, A: Echinochloa oryzacola Vasing. [1] | Herbicidal effect grade, B: Scirpus juncoides (Scirpus juncoides) | herbicidal effect on E, grade 0-5 (Cyperus difformis) | I: Avena fatua, herbicidal effect grade (Avena fatua) | K: Lolium multiflorum Lam., herbicidal effect grade (Lolium multiflorum Lam.) | L: Apera spica-venti, herbicidal effect grade (Apera spica-venti) | M: Abutilon theophrasti, herbicidal effect grade (Abutilon theophrasti) | N: Amaranthus retroflexus, herbicidal effect grade (Amaranthus retroflexus [5]) | P: Stellaria media, herbicidal effect grade (Stellaria media) | Q: Galium spurium, herbicidal effect grade (Galium spurium [6]) | R: Veronica persica, herbicidal effect grade (Veronica persica) | A (Echinochloa oryzacola Vasing.) herbicidal effect grade [1] | E herbicidal effect grade (Cyperus difformis) | H: Echinochloa crus-galli var. crus-galli, herbicidal effect grade ([2]; 320 g/ha) | N: Amaranthus retroflexus, herbicidal effect grade (Amaranthus retroflexus [3]; 320 g/ha) | Q: Galium spurium, herbicidal effect grade (Galium spurium [4]; 320 g/ha) | c: corn, effect grade on crop (corn) | g: rapeseed, effect grade on crop (rapeseed) | I: Avena fatua, herbicidal effect (criteria 0-5) (Avena fatua) | K: Lolium multiflorum Lam., herbicidal effect (criteria 0-5) (Lolium multiflorum Lam.) | further results |
| --- | --- | --- | --- | --- | --- | --- | --- | --- | --- | --- | --- | --- | --- | --- | --- | --- | --- | --- | --- | --- | --- |
| CON=C(C)CC1CC(OC(C)=O)=C(c2c(C)cc(C)cc2C)C1=O (centres unmarked) [1-005] | 5 (Herbicidal ratio of 90% or more (almost completely withered)) | 4 (Herbicidal ratio of 70% or higher and lower than 90%) | 5 (Herbicidal ratio of 90% or more (almost completely withered)) | 5 (Herbicidal ratio of 90% or more (almost completely withered)) | 5 (Herbicidal ratio of 90% or more (almost completely withered)) | 5 (Herbicidal ratio of 90% or more (almost completely withered)) | 4 (Herbicidal ratio of 70% or higher and lower than 90%) | 4 (Herbicidal ratio of 70% or higher and lower than 90%) | 4 (Herbicidal ratio of 70% or higher and lower than 90%) | 4 (Herbicidal ratio of 70% or higher and lower than 90%) | 3 (Herbicidal ratio of 40% or higher and lower than 70%) | – | – | – | – | – | – | – | – | – | H (Echinochloa crus-galli var. crus-galli) herbicidal effect grade [2, 7]: 5 (Herbicidal ratio of 90% or more (almost completely withered)); N (Amaranthus retroflexus) herbicidal effect grade (Amaranthus retroflexus [3]; [7]): 5 (Herbicidal ratio of 90% or more (almost completely withered)); Q (Galium spurium) herbicidal effect grade (Galium spurium [4]; [7]): 0 (Herbicidal ratio of 5% or lower (almost no effect)); c (corn) effect on crop grade (corn; [7]): 4 (Herbicidal ratio of 70% or higher and lower than 90%); g (rapeseed) effect on crop grade (rapeseed; [7]): 4 (Herbicidal ratio of 70% or higher and lower than 90%) |
| CON=C(CC1CC(O)=C(c2c(C)cc(-n3cc(Cl)cn3)cc2C)C1=O)C1CC1 (centres unmarked) [9-007] | – | 4 (Herbicidal ratio of 70% or higher and lower than 90%) | – | 5 (Herbicidal ratio of 90% or more (almost completely withered)) | 5 (Herbicidal ratio of 90% or more (almost completely withered)) | 5 (Herbicidal ratio of 90% or more (almost completely withered)) | 0 (Herbicidal ratio of 5% or lower (almost no effect)) | 0 (Herbicidal ratio of 5% or lower (almost no effect)) | 3 (Herbicidal ratio of 40% or higher and lower than 70%) | 1 (Herbicidal ratio of 5% or higher and lower than 20%) | 4 (Herbicidal ratio of 70% or higher and lower than 90%) | 5 (Herbicidal ratio of 90% or more (almost completely withered)) | 5 (Herbicidal ratio of 90% or more (almost completely withered)) | – | – | – | – | – | – | – | Herbicidal effect grade, H: Echinochloa crus-galli var. crus-galli [2, 7]: 3 (Herbicidal ratio of 40% or higher and lower than 70%); Herbicidal effect grade, N: Amaranthus retroflexus (Amaranthus retroflexus [3]; [7]): 0 (Herbicidal ratio of 5% or lower (almost no effect)); Herbicidal effect grade, Q: Galium spurium (Galium spurium [4]; [7]): 0 (Herbicidal ratio of 5% or lower (almost no effect)); Effect on crop grade, c: corn (corn; [7]): 0 (Herbicidal ratio of 5% or lower (almost no effect)); Effect on crop grade, g: rapeseed (rapeseed; [7]): 0 (Herbicidal ratio of 5% or lower (almost no effect)) |
| CCC(=O)CC1CC(O)=C(c2c(C)cc(Br)cc2OC)C1=O (racemic) [14-002] | – | 0 (Herbicidal ratio of 5% or lower (almost no effect)) | – | 5 (Herbicidal ratio of 90% or more (almost completely withered)) | 5 (Herbicidal ratio of 90% or more (almost completely withered)) | 5 (Herbicidal ratio of 90% or more (almost completely withered)) | 4 (Herbicidal ratio of 70% or higher and lower than 90%) | 0 (Herbicidal ratio of 5% or lower (almost no effect)) | 0 (Herbicidal ratio of 5% or lower (almost no effect)) | 0 (Herbicidal ratio of 5% or lower (almost no effect)) | 0 (Herbicidal ratio of 5% or lower (almost no effect)) | 4 (Herbicidal ratio of 70% or higher and lower than 90%) | 5 (Herbicidal ratio of 90% or more (almost completely withered)) | – | – | – | – | – | – | – | H: Echinochloa crus-galli var. crus-galli, herbicidal effect grade [2, 7]: 5 (Herbicidal ratio of 90% or more (almost completely withered)); N: Amaranthus retroflexus, herbicidal effect grade (Amaranthus retroflexus [3]; [7]): 0 (Herbicidal ratio of 5% or lower (almost no effect)); Q: Galium spurium, herbicidal effect grade (Galium spurium [4]; [7]): 0 (Herbicidal ratio of 5% or lower (almost no effect)); c: corn, effect on crop grade (corn; [7]): 1 (Herbicidal ratio of 5% or higher and lower than 20%); g: rapeseed, effect on crop grade (rapeseed; [7]): 0 (Herbicidal ratio of 5% or lower (almost no effect)) |
| CC(CC1CC(O)=C(c2c(C)cc(C)cc2C)C1=O)=NOCc1ccccc1C(F)(F)F (centres unmarked) [1-116] | 5 (Herbicidal ratio of 90% or more (almost completely withered)) | 3 (Herbicidal ratio of 40% or higher and lower than 70%) | 4 (Herbicidal ratio of 70% or higher and lower than 90%) | – | – | – | – | – | – | – | – | – | – | 3 (Herbicidal ratio of 40% or higher and lower than 70%) | 5 (Herbicidal ratio of 90% or more (almost completely withered)) | 0 (Herbicidal ratio of 5% or lower (almost no effect)) | 0 (Herbicidal ratio of 5% or lower (almost no effect)) | 2 (Herbicidal ratio of 20% or higher and lower than 40%) | 4 (Herbicidal ratio of 70% or higher and lower than 90%) | 5 (Herbicidal ratio of 90% or more (almost completely withered)) | L: Apera spica-venti, herbicidal effect (criteria 0-5) (Apera spica-venti): 5 (Herbicidal ratio of 90% or more (almost completely withered)); M: Abutilon theophrasti, herbicidal effect (criteria 0-5) (Abutilon theophrasti): 1 (Herbicidal ratio of 5% or higher and lower than 20%); N: Amaranthus retroflexus, herbicidal effect (criteria 0-5) (Amaranthus retroflexus [5]): 0 (Herbicidal ratio of 5% or lower (almost no effect)); P: Stellaria media, herbicidal effect (criteria 0-5) (Stellaria media): 2 (Herbicidal ratio of 20% or higher and lower than 40%); Q: Galium spurium, herbicidal effect (criteria 0-5) (Galium spurium [6]): 1 (Herbicidal ratio of 5% or higher and lower than 20%); R: Veronica persica, herbicidal effect (criteria 0-5) (Veronica persica): 3 (Herbicidal ratio of 40% or higher and lower than 70%) |
| CON=C(C)CC1CC(OC(=O)c2nc(C)sc2C)=C(c2c(C)cc(C)cc2C)C1=O (centres unmarked) [1-101] | 5 (Herbicidal ratio of 90% or more (almost completely withered)) | 5 (Herbicidal ratio of 90% or more (almost completely withered)) | 5 (Herbicidal ratio of 90% or more (almost completely withered)) | – | – | – | – | – | – | – | – | – | – | 5 (Herbicidal ratio of 90% or more (almost completely withered)) | 3 (Herbicidal ratio of 40% or higher and lower than 70%) | 0 (Herbicidal ratio of 5% or lower (almost no effect)) | 5 (Herbicidal ratio of 90% or more (almost completely withered)) | 5 (Herbicidal ratio of 90% or more (almost completely withered)) | 5 (Herbicidal ratio of 90% or more (almost completely withered)) | 5 (Herbicidal ratio of 90% or more (almost completely withered)) | L: Apera spica-venti, herbicidal effect (criteria 0-5) (Apera spica-venti): 5 (Herbicidal ratio of 90% or more (almost completely withered)); M: Abutilon theophrasti, herbicidal effect (criteria 0-5) (Abutilon theophrasti): 5 (Herbicidal ratio of 90% or more (almost completely withered)); N: Amaranthus retroflexus, herbicidal effect (criteria 0-5) (Amaranthus retroflexus [5]): 5 (Herbicidal ratio of 90% or more (almost completely withered)); P: Stellaria media, herbicidal effect (criteria 0-5) (Stellaria media): 3 (Herbicidal ratio of 40% or higher and lower than 70%); Q: Galium spurium, herbicidal effect (criteria 0-5) (Galium spurium [6]): 0 (Herbicidal ratio of 5% or lower (almost no effect)); R: Veronica persica, herbicidal effect (criteria 0-5) (Veronica persica): 3 (Herbicidal ratio of 40% or higher and lower than 70%) |

— US11000033B2, “Ketone or oxime compound, and herbicide” (NISSAN CHEMICAL CORPORATION, priority 2014, dated 2021)
